≈ marks a conversion by molar mass, not a printed value.
Columns and labels:
[1] = Solubilization of PAHs in Tween 80 micellar solutions (1H-NMR quantification, MSR); details: for MSR (molar solubilization ratio): Tween 80 10-50 mM in D2O, 25 °C; for Synergistic/inhibitory level (RΔMSR), in words: Tween 80
From the text: (§1) Molar solubilization ratio (MSR) is used to evaluate the solubilization potential of a surfactant, which is the molar concentration of the solubilized compound per mole of the surfactant concentration when the surfactant concentration is above CMC [37, 38], expressed by: (1) MSR=S−SCMC/C−CMC where S is the apparent solubility of a solute at the surfactant concentration of C, SCMC is the apparent solubility of the solute at CMC. Usually, the slope of the solubility with respect to the surfactant concentration can be considered to be MSR.
(§2) To compare the mutual effects of solutes in co-solubilization systems, the deviation ratio of MSR (RΔMSR) can be used to evaluate the effects of synergistic (RΔMSR > 0) or inhibitory (RΔMSR < 0), which can be expressed by: (2) RΔMSR%=MSRmixture−MSRsingle/MSRsingle×100% where MSRmixture and MSRsingle are the MSR values of solutes in the binary or ternary co-solubilization system and in the single solubilization system, respectively.
(§3) All reagents were used directly without further purification. First, a series of Tween 80 pure solutions at concentrations of 10, 20, 30, 40 and 50 mM and SDS pure solutions at concentrations of 40, 60, 80, 100 and 120 mM were prepared in D2O, respectively. These concentrations were set higher than their CMCs. The solubilization experiment was processed as follows: first, 8 equal 800 μL surfactant solutions at a certain surfactant concentration were injected into eight of 1.5 mL centrifuge cuitubes, respectively. One of them without the addition of PAHs was used as the blank control. […] Next, the surfactant solutions with PAHs solubilized were equilibrated on a reciprocating water bath oscillator at 200 rpm at 25 °C for 48 h. After equilibration, the above solutions were centrifuged at 10,000 rpm for 10 min. Finally, each of 600 μL of supernatant was transferred into 5 mm NMR tubes for further detection.
All NMR experiments were performed at 25 °C using a 500 MHz Agilent ProPulse NMR spectrometer (Agilent Technologies, Santa Clara, CA, USA) equipped with a 5 mm XYZ indirect detection probe and z-direction gradient coils with a maximum nominal gradient strength of 60 G cm^−1. The pulse excitation angle of 30 ° and the relaxation delay time of 5 s in ^1H-NMR experiments were chosen to assure the complete recovery of the magnetization and the accurate quantification. The Sodium Trimethylsilylpropionate (TSP) aqueous solution in the capillary was used as an external reference for the frequency and concentration calibration. […] Based on the resonance integral area of PAHs relative to that of TSP, we calculated their actual apparent concentrations. A total of 16 accumulations were used in 2D NOESY experiments, 1 s was chosen as mixing time. […] Due to the high growth rate of rotating frame overhauser effect (ROE) than that of NOE, ROESY experiments for Tween 80 systems were conducted instead of NOESY to avoid the possible spin diffusion effect in NOESY with the long mixing time. The parameters of the 2D ROESY experiments were the same as the NOESY experiments except that the mixing time was 0.2 s. MestReNova software (version 14.0.0, Mestrelab Research, Santiago de Compostella, Spain) was used to process all NMR data.

[2] = Solubilization of PAHs in SDS micellar solutions (1H-NMR quantification, MSR); details: for MSR (molar solubilization ratio): SDS 40-120 mM in D2O, 25 °C; for Synergistic/inhibitory level (RΔMSR), in words / solubility increase (RΔMSR) compared to single system: SDS
From the text: as §1, §2, §3
All NMR experiments were performed at 25 °C using a 500 MHz Agilent ProPulse NMR spectrometer (Agilent Technologies, Santa Clara, CA, USA) equipped with a 5 mm XYZ indirect detection probe and z-direction gradient coils with a maximum nominal gradient strength of 60 G cm^−1. The pulse excitation angle of 30 ° and the relaxation delay time of 5 s in ^1H-NMR experiments were chosen to assure the complete recovery of the magnetization and the accurate quantification. The Sodium Trimethylsilylpropionate (TSP) aqueous solution in the capillary was used as an external reference for the frequency and concentration calibration. […] Based on the resonance integral area of PAHs relative to that of TSP, we calculated their actual apparent concentrations. A total of 16 accumulations were used in 2D NOESY experiments, 1 s was chosen as mixing time.

[3] = water; cited from earlier work
[4] = binary Ant-Pyr system vs single
[5] = binary Phe-Ant system vs single
[6] = ternary Phe-Ant-Pyr system vs single
[7] = binary Phe-Pyr system vs single

Structure (SMILES)	MSR (molar solubilization ratio) ([1]; binary Phe-Ant system)	MSR (molar solubilization ratio) ([1]; single solubilization system)	MSR (molar solubilization ratio) ([1]; ternary Phe-Ant-Pyr system)	Synergistic/inhibitory level (RΔMSR), in words [1, 5]	Synergistic/inhibitory level (RΔMSR), in words [1, 6]	MSR (molar solubilization ratio) ([2]; binary Phe-Ant system)	MSR (molar solubilization ratio) ([2]; single solubilization system)	MSR (molar solubilization ratio) ([2]; ternary Phe-Ant-Pyr system)	Synergistic/inhibitory level (RΔMSR), in words [2, 5]	Synergistic/inhibitory level (RΔMSR), in words [2, 6]	other results
c1ccc2cc3ccccc3cc2c1 [Ant, anthracene]	0.0084	0.0094	0.0080	slight inhibition	slight inhibition	0.0011	0.0011	0.0013	neither Phe nor Pyr contributes to the solubility increase	slight synergism	MSR (molar solubilization ratio) ([1]; binary Ant-Pyr system): 0.0081; Synergistic/inhibitory level (RΔMSR), in words [1, 4]: slight inhibition; MSR (molar solubilization ratio) ([2]; binary Ant-Pyr system): 0.0011; Synergistic/inhibitory level (RΔMSR), in words [2, 4]: neither Phe nor Pyr contributes to the solubility increase
c1ccc2c(c1)ccc1ccccc12 [Phe, phenanthrene]	0.0894	0.1170	0.0694	inhibition	inhibition	0.0095	0.0089	0.0166	synergism	synergism	aqueous solubility [3]: 5.55 µM (≈ 0.989 µg/mL); MSR (molar solubilization ratio) ([1]; binary Phe-Pyr system): 0.1216; Synergistic/inhibitory level (RΔMSR), in words [1, 7]: synergism; MSR (molar solubilization ratio) ([2]; binary Phe-Pyr system): 0.0157; solubility increase (RΔMSR) compared to single system ([2]; binary Phe-Pyr system): 76.4%; Synergistic/inhibitory level (RΔMSR), in words [2, 7]: synergism; solubility increase (RΔMSR) compared to single system ([2]; ternary Phe-Ant-Pyr system): 86.5%

Source: PMC8125976, “The Total Solubility of the Co-Solubilized PAHs with Similar Structures Indicated by NMR Chemical Shift” (Molecules, 2021)
